Series [1] has as its system Ku70-Ku80 full length (KuFL, His-Ku80) (human). Description: switchSENSE. The note with it: Single-molecule: 20 mM Tris pH 7.5, 100 mM KCl, 2.5 mM MgCl2, 1 mg/mL BSA, 2 mM DTT, 0.8% glucose, 0.1% Trolox, 1% GLOX, 1 nM Ku, switchSENSE (15-240 nM Ku) ….
The subject of another series is HEK-293T cells. Description: Dual dEJ/HR reporter assay. The format is cell-based, human. The note with it: versus control without inhibitors; for expression of the HR marker BFP / HR activity: NU7441 3 μM or B02 10 μM. The source says:
The dEJ-HR dual reporter substrate for both direct end-joining and homologous recombination was assembled into the pEGFP-N1 vector (Clontech) following sequential insertion of various PCR products, oligonucleotide linkers and synthetic DNA fragments (see Supplementary Information for a detailed description). The Cas9 and guide RNA co-expression plasmid used to cleave the reporter substrate was generated by inserting the pre-annealed gRNA-dEJ-HR-F and gRNA-dEJ-HR-R oligonucleotides into the BbsI restriction sites of pX330-U6-Chimeric_BB-CBh-hSpCas9 (a gift from Feng Zhang; Addgene plasmid # 42230; http://n2t.net/addgene:42230; RRID:Addgene_42230). The pmCherry-NLS plasmid (a gift from Martin Offterdinger; Addgene plasmid # 39319; http://n2t.net/addgene:39319; RRID:Addgene_39319) was used as an internal control of transfection efficiency in end-joining assays.
Cell lines and cultures are described in Figure 5 legend. HEK-293T cells were seeded in 6-well plates and transfected 24 h later with a mix of reporter substrate (500 ng), Cas9/gRNA expressing vector (300 ng) and pmCherry-NLS control plasmid (200 ng) using JetPEI (PolyPlus-Transfection, Illkirch-Graffenstaden, France). When indicated, cells were treated at the time of transfection with 3 μM DNA-PK inhibitor NU7441 (Tocris, Bristol, UK) or 10 μM Rad51 inhibitor B02 (Sigma-Aldrich St. Louis, MO). Cells were trypsinized 2 days post-transfection, washed with PBS and analysed by flow cytometry on a Fortessa X-20 cell analyzer (BD Biosciences). For each cell population, the integrated fluorescence signal (% positive cells × mean fluorescence) was calculated for each repair readout (i.e. GFP for direct end-joining and BFP for gene conversion) and normalized to that of transfection control (mCherry). Western blots, antibodies, oligonucleotides, plasmids and DNA manipulations, generation of U2OS shKu80 cells and generation of HEK-293T mAID-Ku70/mAID-Ku80 cells are described in Supplemental Information.
(Reporter assays use an easily measured gene product as a stand-in for the process of interest.)

Series [2] concerns the target T1, KuFL (full-length human Ku70–Ku80 heterodimer) (Homo sapiens, UniProt P12956+P13010).
T1 construct: The full-length human Ku heterodimer subunits (Ku70 1–609, Ku80 1–732); 10x His-tag with TEV site (N); made in house; host or cells: Sf21 insect cells (baculovirus, MultiBac)
Nature of the series: Isothermal titration calorimetry (ITC), KuFL with IP6 and IP6 analogues. The format is binding. As to conditions: 25 °C, Ku 4 µM in cell, IPs 40 µM in syringe. The method, then:
Purification of Ku full-length (KuFL) for cryo-EM experiments was carried out as described previously ([5]). Expression and purification of KuFL for biophysical experiments was carried out as described previously ([20]). The full-length human Ku heterodimer subunits (Ku70 1–609, Ku80 1–732) were cloned into a Multibac vector ([21]). The construct has a 10× His-tag and a TEV site on the N-terminus of Ku80 and no-tag on Ku70. Protein production was initiated in Sf21 cells by infection with the baculovirus stock at MOI of 5 × 10^−3 and cells were collected 5–6 days after the infection (3–4 days after the proliferation arrest). Cells were sonicated and the supernatant was incubated with Benzonase (300 units for 30 min at 4°C). The Ku heterodimer was purified on a NiNTA-Agarose affinity column (Protino, Macherey Nagel) with a 1 M NaCl wash step to remove DNA excess. The eluted Ku was then bound onto an anion exchange column (Resource Q, Cytiva) equilibrated in 20 mM Tris pH 8.0, 50 mM NaCl, 50 mM KCl, 10 mM β-mercaptoethanol and eluted with a salt gradient. The final yield was about 20 mg of purified heterodimer per litre of culture. KuΔC constructs, heterodimer deleted of its C-terminal region (Ku70 1–544, Ku80 1–551) for X-ray crystallography, Ku mutants, Ku-2E (Ku with mutation in K357E on Ku70 and K481E on Ku80) and Ku-4E (Ku with mutations in H359E and H360E on Ku70 and K413E and H414E on Ku80) were cloned in the same vector and produced following the same protocol as KuFL expressed in Sf21 insect cells.
Calorimetry. Interactions between KuFL and inositol phosphates (IPs) (IP6 and IP6 analogues) were determined by Isothermal Titration Calorimetry (ITC) using a VP-ITC calorimeter (Malvern). Prior to measurements, all solutions were degassed under vacuum. The reaction cell of the ITC (volume 1.8 mL) was loaded with Ku heterodimers at 4 µM concentration. […] The free energy of binding (ΔG) and the entropy (ΔS) were determined using the classical thermodynamic formula, ΔG = - RT ln(Ka) and ΔG = ΔH - TΔS. […]
A general note: Isothermal titration calorimetry measures the heat released or taken up as one component is titrated into another.

For series [3], the system named is HEK-293T cells expressing Ku-wt. Nature of the series: Cell fractionation and western blot of chromatin and soluble fractions. The note with it: 1 h. In kind it is cell-based, human. The method, then:
Stock solution of Calicheamicin γ1 (Cali), gift from P.R. Hamann (Wyeth Research, Pearl River, NY, USA), was made at 40 μM in ethanol and stored at –20°C. For drug-exposure, exponentially growing cells in […] were either mock-treated or treated with Cali in fresh medium for 1 h at 37°C. Then cells were washed with phosphate-buffered saline and trypsinized. Pellets were fractionated as follows. Cells were first resuspended for 7 min on ice in 120 μL of extraction buffer 1 (50 mM HEPES pH 7.5, 150 mM NaCl, 1 mM EDTA) containing 0.1% Triton X-100 and supplemented with the Halt protease and phosphatase inhibitor cocktail (Thermo Fisher Scientific) with intermittent gentle vortexing. […] Protein content was measured with BCA reagent (Pierce) and equivalent protein amounts were denaturated in loading buffer at 1× final concentration (50 mM Tris–HCl pH 6.8, 10% glycerol, 1% SDS, 300 mM 2-mercaptoethanol, 0.01% bromophenol blue) at 95°C for 5 min, separated on SDS-PAGE gels (BioRad 4–15% TGX pre-cast gels) before overnight transfer onto Immobilon-P polyvinylidene difluoride (PVDF, Millipore) membranes. […]
A general note: In western blotting, separated proteins are transferred to a membrane and probed.

Series [4] addresses full-length human Ku70–Ku80 heterodimer (KuFL), expressed in Sf21 insect cells (human) (UniProt P12956). Nature of the series: switchSENSE; fluorescent DNA hybridised on the gold surface of the chip, Ku bound to this DNA in saturating conditions, then XLF injected (1, 2 and 8 μM); absence of IP6; biphasic, two steps binding mode fit; apparent affinities.
Series [5] shares this target. Description: switchSENSE; fluorescent DNA hybridised on the gold surface of the chip, Ku bound to this DNA in saturating conditions, then XLF injected (1, 2 and 8 μM); 20 μM IP6 during Ku association and XLF titration; biphasic, two steps binding mode fit; apparent affinities.

Where a name gives a salt, the structure may show the parent alone.

Sequence of XLF (Q9H9Q4 whole entry): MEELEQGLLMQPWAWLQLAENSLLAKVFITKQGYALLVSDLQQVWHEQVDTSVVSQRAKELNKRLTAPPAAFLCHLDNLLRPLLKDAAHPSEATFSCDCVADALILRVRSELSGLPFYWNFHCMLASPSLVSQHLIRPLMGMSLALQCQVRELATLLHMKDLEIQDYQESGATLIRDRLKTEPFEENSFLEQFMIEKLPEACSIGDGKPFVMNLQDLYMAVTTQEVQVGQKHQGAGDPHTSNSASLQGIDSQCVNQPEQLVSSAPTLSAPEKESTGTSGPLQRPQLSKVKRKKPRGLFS
Sequence of full-length human Ku70–Ku80 heterodimer (KuFL), expressed in Sf21 insect cells (human) (P12956 whole entry, chain 1 of 2): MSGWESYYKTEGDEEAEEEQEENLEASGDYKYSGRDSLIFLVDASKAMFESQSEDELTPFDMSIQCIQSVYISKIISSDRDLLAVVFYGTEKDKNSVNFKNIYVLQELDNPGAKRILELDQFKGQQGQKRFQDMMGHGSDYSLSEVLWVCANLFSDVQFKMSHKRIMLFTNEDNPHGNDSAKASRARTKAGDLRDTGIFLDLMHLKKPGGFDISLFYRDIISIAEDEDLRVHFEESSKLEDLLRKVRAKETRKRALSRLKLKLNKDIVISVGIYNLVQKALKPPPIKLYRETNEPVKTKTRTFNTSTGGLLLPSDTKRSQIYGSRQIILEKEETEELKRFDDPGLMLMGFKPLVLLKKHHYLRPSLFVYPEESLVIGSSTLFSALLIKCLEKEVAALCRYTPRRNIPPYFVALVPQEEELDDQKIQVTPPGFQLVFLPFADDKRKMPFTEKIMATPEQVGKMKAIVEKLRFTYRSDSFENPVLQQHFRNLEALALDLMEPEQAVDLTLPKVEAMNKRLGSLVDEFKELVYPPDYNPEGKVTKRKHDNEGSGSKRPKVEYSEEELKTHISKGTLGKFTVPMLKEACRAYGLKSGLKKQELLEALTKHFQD
Sequence of full-length human Ku70–Ku80 heterodimer (KuFL), expressed in Sf21 insect cells (human) (P13010 whole entry, chain 2 of 2, further chain): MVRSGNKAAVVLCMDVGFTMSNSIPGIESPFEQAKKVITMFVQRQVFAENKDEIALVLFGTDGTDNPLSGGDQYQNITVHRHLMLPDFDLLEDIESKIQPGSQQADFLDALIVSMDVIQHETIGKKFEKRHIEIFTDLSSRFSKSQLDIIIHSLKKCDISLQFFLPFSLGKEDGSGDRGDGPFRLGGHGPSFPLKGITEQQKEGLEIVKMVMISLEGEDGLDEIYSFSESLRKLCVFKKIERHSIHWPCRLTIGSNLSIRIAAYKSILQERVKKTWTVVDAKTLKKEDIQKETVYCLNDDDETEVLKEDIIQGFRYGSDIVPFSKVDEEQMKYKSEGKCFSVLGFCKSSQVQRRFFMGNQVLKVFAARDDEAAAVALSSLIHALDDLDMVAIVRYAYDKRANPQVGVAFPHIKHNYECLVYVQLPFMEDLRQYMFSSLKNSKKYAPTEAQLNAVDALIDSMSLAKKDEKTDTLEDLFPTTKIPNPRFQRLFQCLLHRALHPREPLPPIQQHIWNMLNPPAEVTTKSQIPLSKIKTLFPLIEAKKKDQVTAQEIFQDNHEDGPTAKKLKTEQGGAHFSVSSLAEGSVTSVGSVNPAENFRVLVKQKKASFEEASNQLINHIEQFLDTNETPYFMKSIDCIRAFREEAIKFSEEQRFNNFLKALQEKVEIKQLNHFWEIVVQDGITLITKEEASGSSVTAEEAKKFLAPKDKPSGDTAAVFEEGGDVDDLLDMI
T1 sequence (P12956 whole entry): as the sequence (P12956 whole entry, chain 1 of 2) above
T1 sequence (P13010 whole entry): as the sequence (P13010 whole entry, chain 2 of 2, further chain) above

As usually defined, the Kd is the constant that tells how readily two partners part at equilibrium. High values mean a looser complex, low ones a tighter complex. Turning to 48 bp dsDNA (switchSENSE), the Kd in series [1] (3 uM IP6, kon 6.35e5 M-1 s-1, koff 1.27e-3 s-1) was found to be 1.99 nM; in series [1] (no IP6, kon 6.94e5 M-1 s-1, koff 2.26e-3 s-1), 3.25 nM.

For `O=c1c2ccccc2nc(/C=C/c2cccnc2)n1Cc1ccccc1` [B02], in the series on HEK-293T cells, the “expression of the HR marker BFP / HR activity” value was “decreased”.

In series [2], `O=P(O)(O)OC1C(OP(=O)(O)O)C(OP(=O)(O)O)C(OP(=O)(O)O)C(OP(=O)(O)O)C1OP(=O)(O)O` [D-chiro-IP6, D-chiro-inositol 1,2,3,4,5,6-hexakisphosphate sodium salt] displayed a dissociation constant Kd of 22 ± 6.8 nM.

Take `O=c1cc(N2CCOCC2)oc2c(-c3cccc4c3sc3ccccc34)cccc12` [NU7441]: the “expression of the HR marker BFP / HR activity” value in the series on HEK-293T cells is “compensatory increase in HR”. Also, the “expression of the direct EJ (dEJ) marker GFP” value in the series on HEK-293T cells (NU7441 3 μM) is given as “decreased”.

On to `O=P(O)(O)O[C@H]1[C@H](OP(=O)(O)O)[C@@H](OP(=O)(O)O)[C@H](OP(=O)(O)O)[C@@H](OP(=O)(O)O)[C@H]1OP(=O)(O)O` [scyllo-IP6, scyllo-inositol hexakisphosphate sodium salt], for which the Kd in series [2] was determined as 18 ± 2.5 nM.

As for Calicheamicin γ1, in series [3] (highest dose of calicheamicin), the “XLF, Lig4 and PAXX in the soluble proteins fraction” value is “depleted from the soluble proteins fraction”. In series [3] (increasing concentrations of calicheamicin), the “NHEJ proteins including XLF and PAXX in the chromatin fraction” value is listed as “increasingly detected in the chromatin fraction”.

For “XLF (from UniProt Q9H9Q4 1-299) (natural protein)”, in series [4], the KD1 (first of two apparent affinities, biphasic fit; without IP6) was found to be 3.6 µM and the KD2 (second of two apparent affinities, biphasic fit; without IP6) is 1.9 µM. In series [5], the KD1 (first of two apparent affinities, biphasic fit; with 20 μM IP6) is 1.2 µM and the KD2 (second of two apparent affinities, biphasic fit; with 20 μM IP6) came to 0.13 µM.
